Experimental data reported in PMC4357167 (Cancer cell, 2015).

What was measured:
[1] = target: SMO V386A (Homo sapiens, UniProt Q99835, V386A); assay: Hedgehog signaling assay; format: cell-based; conditions: 100 nM vismodegib and SHH-N ligand
[2] = target: SMO H231R (Homo sapiens, UniProt Q99835, H231R); assay: Hedgehog signaling assay; format: cell-based; conditions: 100 nM vismodegib and SHH-N ligand
[3] = target: SMO D473G (Homo sapiens, UniProt Q99835, D473G); assay: Hedgehog signaling assay; format: cell-based; conditions: 100 nM vismodegib and SHH-N ligand
SMO D473G, sequence (Q99835 28-787 D473G): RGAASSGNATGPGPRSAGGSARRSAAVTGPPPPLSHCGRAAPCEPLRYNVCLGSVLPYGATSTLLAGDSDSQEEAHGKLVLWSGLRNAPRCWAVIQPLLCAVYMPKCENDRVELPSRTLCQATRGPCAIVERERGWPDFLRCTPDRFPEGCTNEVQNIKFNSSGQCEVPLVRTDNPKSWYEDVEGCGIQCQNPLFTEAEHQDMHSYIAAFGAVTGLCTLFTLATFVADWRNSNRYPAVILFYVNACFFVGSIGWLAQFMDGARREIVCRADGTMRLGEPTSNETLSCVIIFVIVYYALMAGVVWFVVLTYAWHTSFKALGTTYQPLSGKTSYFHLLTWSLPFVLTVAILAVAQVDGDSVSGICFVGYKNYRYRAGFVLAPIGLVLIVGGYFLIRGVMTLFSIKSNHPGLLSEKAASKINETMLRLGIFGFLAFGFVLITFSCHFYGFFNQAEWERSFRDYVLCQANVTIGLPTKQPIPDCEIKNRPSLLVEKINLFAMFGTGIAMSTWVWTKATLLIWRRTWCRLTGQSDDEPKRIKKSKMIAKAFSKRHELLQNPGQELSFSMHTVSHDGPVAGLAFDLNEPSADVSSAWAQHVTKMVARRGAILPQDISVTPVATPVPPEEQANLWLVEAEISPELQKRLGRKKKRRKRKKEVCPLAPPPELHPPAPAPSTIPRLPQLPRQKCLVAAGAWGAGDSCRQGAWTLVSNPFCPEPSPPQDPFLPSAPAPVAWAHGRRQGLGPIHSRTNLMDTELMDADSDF

[4] = target: SMO W281C (Homo sapiens, UniProt Q99835, W281C); assay: Hedgehog signaling assay; format: cell-based; conditions: 100 nM vismodegib and SHH-N ligand
SMO W281C, sequence (Q99835 28-787 W281C): as the sequence (Q99835 28-787 D473G) above, with W254C, G446D counted along it

[5] = target: SMO Q477E (Homo sapiens, UniProt Q99835, Q477E); assay: Hedgehog signaling assay; format: cell-based; conditions: 100 nM vismodegib and SHH-N ligand
SMO Q477E, sequence (Q99835 28-787 Q477E): as the sequence (Q99835 28-787 D473G) above, with G446D, Q450E counted along it

[6] = target: SMO F460L (Homo sapiens, UniProt Q99835, F460L); assay: Hedgehog signaling assay; format: cell-based; conditions: SHH-N CM, 100 nM vismodegib
SMO F460L, sequence (Q99835 28-787 F460L): as the sequence (Q99835 28-787 D473G) above, with F433L, G446D counted along it

[7] = target: SMO V321M (Homo sapiens, UniProt Q99835, V321M); assay: Hedgehog signaling assay; format: cell-based; conditions: SHH-N CM, 100 nM vismodegib
SMO V321M, sequence (Q99835 28-787 V321M): as the sequence (Q99835 28-787 D473G) above, with V294M, G446D counted along it

[8] = target: SMO L412F (Homo sapiens, UniProt Q99835, L412F); assay: Hedgehog signaling assay; format: cell-based; conditions: SHH-N CM, 100 nM vismodegib
SMO L412F, sequence (Q99835 28-787 L412F): as the sequence (Q99835 28-787 D473G) above, with L385F, G446D counted along it

[9] = target: SMO Q635E (Homo sapiens, UniProt Q99835, Q635E); conditions: SHH-N CM, 10, 20 or 80 nM vismodegib
SMO Q635E, sequence (Q99835 28-787 Q635E): as the sequence (Q99835 28-787 D473G) above, with G446D, Q608E counted along it

[10] = system: advanced and metastatic BCCs; conditions: 2012, cited from earlier work
[11] = system: syndromic BCCs in patients with Basal Cell Nevus Syndrome; conditions: Gorlin, inherited PTCH1 loss; ref Tang et al., 2012; cited from earlier work
[12] = system: SMO-LBP and SMO-CA variants; assay: HH pathway activity; conditions: […] nM vismodegib (4-fold greater than IC50), SHH-N CM

SMO H231R, sequence (Q99835 28-787 H231R): as the sequence (Q99835 28-787 D473G) above, with H204R, G446D counted along it
SMO V386A, sequence (Q99835 28-787 V386A): as the sequence (Q99835 28-787 D473G) above, with V359A, G446D counted along it

HH activity (Gli1 mRNA) in the presence of drug [1]: response similar to SMO WT
HH activity (Gli1 mRNA) in the presence of drug [2]: retained high levels of HH activity
HH activity (Gli1 mRNA) in the presence of drug [3]: retained high levels of HH activity
HH activity (Gli1 mRNA) in the presence of drug [4]: retained high levels of HH activity
HH activity (Gli1 mRNA) in the presence of drug [5]: retained high levels of HH activity
HH pathway activity, responsiveness to drug [6]: partially or completely unresponsive
HH pathway activity, responsiveness to drug [7]: partially or completely unresponsive
HH pathway activity, responsiveness to drug [8]: partially or completely unresponsive
SMILES: CS(=O)(=O)c1ccc(C(=O)Nc2ccc(Cl)c(-c3ccccn3)c2)c(Cl)c1 [vismodegib]
HH pathway activity, resistance at low drug concentrations [9]: resistance at low but not high vismodegib concentrations
patients developing resistance during the first year ([10]; additional to non-responders, ref Chang and Oro): 20%
overall response rate ([10]; advanced and metastatic BCCs, ref Axelson et al., 2013, Sekulic et al.): 48%
clinical response [11]: respond to vismodegib and have a low rate of acquired resistance
HH pathway activity (Gli1 mRNA) in the presence of SMO variants [12]: partial or complete resistance
